Tests used:
[1] = target: T1, human MDR1 P‐glycoprotein‐overexpressing MDCK cells (Homo sapiens, UniProt P08183); assay: Bi‐directional transport assay, MDCK‐MDR1 monolayer; assay type: in vitro ADME; details: MDCK‐MDR1, with and without elacridar
T1 construct: host or cells: MDCK (canine kidney)
Protocol: (§1) To determine whether NTRC 3531‐0 could potentially enter the brain, a bi‐directional transport assay was performed with Madin‐Darby canine kidney (MDCK) cells overexpressing the human ABCB1 gene‐encoded MDR1 P‐glycoprotein (MDCK‐MDR1) at Cyprotex (Macclesfield, UK). MDCK‐MDR1 cells form a confluent monolayer in Transwell® cell culture plates (Corning) and express active MDR1 P‐glycoprotein at the apical side. The cell model is a surrogate model of the brain capillary endothelial cell layer that constitutes the blood–brain barrier. The transport of NTRC 3531‐0 from the apical (A) to the basolateral (B) side of the monolayer (P app, A to B), and from basolateral (B) to apical (A) (P app, B to A), was determined by measuring compound levels in the two compartments of the Transwell plates by liquid chromatography–tandem mass spectrometry (LC‐MS/MS) (Table 2). Transport assays were performed in the absence and presence of the P‐glycoprotein inhibitor elacridar.

[2] = target: T2, human MDR1 P-glycoprotein (ABCB1) (Homo sapiens, UniProt P08183); assay: as above; assay type: in vitro ADME; details: dog; MDCK‐MDR1; Elacridar −
T2 construct: host or cells: MDCK (canine kidney)
T2 sequence (P08183 whole entry): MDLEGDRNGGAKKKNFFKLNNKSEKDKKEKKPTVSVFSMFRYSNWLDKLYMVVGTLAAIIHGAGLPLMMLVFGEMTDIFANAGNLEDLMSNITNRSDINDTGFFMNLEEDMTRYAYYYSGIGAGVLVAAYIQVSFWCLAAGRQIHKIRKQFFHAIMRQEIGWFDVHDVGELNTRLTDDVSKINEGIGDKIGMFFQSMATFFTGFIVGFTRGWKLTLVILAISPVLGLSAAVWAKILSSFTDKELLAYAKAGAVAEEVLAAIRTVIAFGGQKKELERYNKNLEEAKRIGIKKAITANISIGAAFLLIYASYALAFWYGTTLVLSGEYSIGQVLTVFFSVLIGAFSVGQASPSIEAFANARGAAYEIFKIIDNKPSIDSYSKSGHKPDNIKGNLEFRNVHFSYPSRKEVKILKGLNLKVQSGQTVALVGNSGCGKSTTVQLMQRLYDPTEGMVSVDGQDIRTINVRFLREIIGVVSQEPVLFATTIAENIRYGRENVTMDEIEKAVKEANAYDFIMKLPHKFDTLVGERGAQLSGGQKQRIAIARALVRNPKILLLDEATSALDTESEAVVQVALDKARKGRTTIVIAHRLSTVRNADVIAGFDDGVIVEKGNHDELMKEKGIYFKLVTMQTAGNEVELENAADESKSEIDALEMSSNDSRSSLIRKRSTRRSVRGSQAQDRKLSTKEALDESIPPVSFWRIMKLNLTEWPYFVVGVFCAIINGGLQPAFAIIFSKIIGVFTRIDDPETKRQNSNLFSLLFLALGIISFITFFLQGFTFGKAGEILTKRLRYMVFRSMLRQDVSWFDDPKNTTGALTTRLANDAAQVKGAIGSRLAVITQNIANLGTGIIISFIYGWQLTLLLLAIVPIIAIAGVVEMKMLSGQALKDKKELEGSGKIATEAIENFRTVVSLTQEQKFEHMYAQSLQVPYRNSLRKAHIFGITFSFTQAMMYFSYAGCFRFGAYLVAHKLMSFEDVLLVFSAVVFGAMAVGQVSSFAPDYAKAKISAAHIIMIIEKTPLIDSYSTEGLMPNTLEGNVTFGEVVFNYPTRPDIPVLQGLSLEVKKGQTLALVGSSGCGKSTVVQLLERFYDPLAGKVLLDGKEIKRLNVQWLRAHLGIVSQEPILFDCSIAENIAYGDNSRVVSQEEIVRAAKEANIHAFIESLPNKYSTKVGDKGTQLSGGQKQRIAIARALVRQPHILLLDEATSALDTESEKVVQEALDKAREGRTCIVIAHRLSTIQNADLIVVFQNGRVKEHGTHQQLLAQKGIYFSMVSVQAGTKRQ
Protocol: as §1

[3] = target: T3, recombinant human TDO (hTDO) (Homo sapiens, UniProt P48775)
T3 sequence (P48775 whole entry): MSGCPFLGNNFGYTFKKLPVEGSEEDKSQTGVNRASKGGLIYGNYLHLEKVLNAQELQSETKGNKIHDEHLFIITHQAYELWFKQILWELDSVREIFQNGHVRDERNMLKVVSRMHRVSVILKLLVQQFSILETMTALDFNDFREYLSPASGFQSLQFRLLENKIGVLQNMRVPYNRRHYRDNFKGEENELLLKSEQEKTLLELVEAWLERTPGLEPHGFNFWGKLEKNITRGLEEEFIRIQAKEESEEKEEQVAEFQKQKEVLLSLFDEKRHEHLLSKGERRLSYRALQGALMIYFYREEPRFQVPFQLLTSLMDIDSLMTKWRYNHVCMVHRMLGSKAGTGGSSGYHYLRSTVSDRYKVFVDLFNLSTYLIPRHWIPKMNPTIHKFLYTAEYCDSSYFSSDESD

[4] = target: T3, recombinant human TDO (hTDO); assay: biochemical
[5] = tested on: rotenone‐induced mouse model of PD; assay: Spatial memory test in rotenone model; details: rotenone mice, 42 days after surgery
CYP2C9 = CYP2C9 (Homo sapiens, UniProt P11712); assay: CYP enzyme panel; assay type: biochemical
Chain of CYP2C9 (P11712 whole entry): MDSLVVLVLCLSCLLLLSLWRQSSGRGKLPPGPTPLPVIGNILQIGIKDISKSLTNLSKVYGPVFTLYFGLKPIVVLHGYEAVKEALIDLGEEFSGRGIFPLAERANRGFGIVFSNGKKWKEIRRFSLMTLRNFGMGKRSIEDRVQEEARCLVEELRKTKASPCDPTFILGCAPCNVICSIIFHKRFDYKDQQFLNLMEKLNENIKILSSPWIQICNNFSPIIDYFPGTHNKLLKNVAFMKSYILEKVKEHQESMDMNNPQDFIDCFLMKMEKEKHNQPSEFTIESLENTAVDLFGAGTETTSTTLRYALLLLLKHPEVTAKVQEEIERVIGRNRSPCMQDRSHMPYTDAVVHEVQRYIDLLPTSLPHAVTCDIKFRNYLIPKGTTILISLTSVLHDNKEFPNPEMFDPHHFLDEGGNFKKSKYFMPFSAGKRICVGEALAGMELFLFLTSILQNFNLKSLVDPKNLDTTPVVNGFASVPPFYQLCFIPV
Source text: (§2) Since TDO contains a heme center, similar to cytochrome P450 (CYP) enzymes, we evaluated the selectivity of NTRC 3531‐0 on a panel of seven CYP enzymes, that is, CYP1A2, CYP2B6, CYP2C8, CYP2C9, CYP2C19, CYP2D6, and CYP3A4.

CYP2B6 = CYP2B6 (Homo sapiens, UniProt P20813); assay: CYP enzyme panel; assay type: biochemical
Source text: as §2

CYP2C19 = CYP2C19 (Homo sapiens, UniProt P33261); assay: CYP enzyme panel; assay type: biochemical
Source text: as §2

CYP2D6 = CYP2D6 (Homo sapiens, UniProt P10635); assay: CYP enzyme panel; assay type: biochemical
Chain of CYP2D6 (P10635 whole entry): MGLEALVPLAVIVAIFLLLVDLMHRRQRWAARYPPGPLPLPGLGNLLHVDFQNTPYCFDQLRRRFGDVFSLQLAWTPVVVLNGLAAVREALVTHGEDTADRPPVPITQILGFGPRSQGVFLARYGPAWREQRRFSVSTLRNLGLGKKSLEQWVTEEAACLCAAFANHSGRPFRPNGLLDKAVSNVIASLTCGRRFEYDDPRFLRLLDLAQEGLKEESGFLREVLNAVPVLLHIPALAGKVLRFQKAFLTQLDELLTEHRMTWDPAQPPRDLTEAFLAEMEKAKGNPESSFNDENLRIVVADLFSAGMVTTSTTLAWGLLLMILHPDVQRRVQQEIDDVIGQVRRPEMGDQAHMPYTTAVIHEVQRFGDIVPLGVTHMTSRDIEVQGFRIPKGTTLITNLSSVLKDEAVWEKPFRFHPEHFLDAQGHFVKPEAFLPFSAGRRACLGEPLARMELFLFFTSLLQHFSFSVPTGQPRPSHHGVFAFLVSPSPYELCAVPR
Source text: as §2

CYP3A4 = CYP3A4 (Homo sapiens, UniProt P08684); assay: CYP enzyme panel; assay type: biochemical
Source text: as §2

CYP1A2 = CYP1A2 (Homo sapiens, UniProt P05177); assay: CYP enzyme panel; assay type: biochemical
Chain of CYP1A2 (P05177 whole entry): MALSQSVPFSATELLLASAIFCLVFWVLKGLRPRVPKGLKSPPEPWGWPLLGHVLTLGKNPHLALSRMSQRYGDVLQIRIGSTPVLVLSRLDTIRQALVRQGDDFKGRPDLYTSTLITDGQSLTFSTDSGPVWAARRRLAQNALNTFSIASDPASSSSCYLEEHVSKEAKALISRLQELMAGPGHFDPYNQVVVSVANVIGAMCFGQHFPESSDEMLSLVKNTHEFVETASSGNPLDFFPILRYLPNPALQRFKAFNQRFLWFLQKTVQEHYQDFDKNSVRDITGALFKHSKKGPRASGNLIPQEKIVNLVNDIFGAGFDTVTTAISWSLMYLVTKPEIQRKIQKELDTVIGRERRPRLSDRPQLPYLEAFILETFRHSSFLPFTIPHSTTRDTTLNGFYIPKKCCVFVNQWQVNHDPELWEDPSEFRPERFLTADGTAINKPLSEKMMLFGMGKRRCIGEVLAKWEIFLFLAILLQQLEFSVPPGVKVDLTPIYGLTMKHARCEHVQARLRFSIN
Source text: as §2

CYP2C8 = CYP2C8 (Homo sapiens, UniProt P10632); assay: CYP enzyme panel; assay type: biochemical
Source text: as §2

GL‐261‐mTDO = target: T4, GL‐261‐mTDO (Mus musculus, UniProt P48776); assay: Cell-based TDO assay, GL‐261‐mTDO cells (pDMAB)
T4 construct: stably overexpressing the full‐length mouse TDO2 cDNA (GL‐261‐mTDO); expressed in transfected cells; host or cells: GL-261
T4 sequence (P48776 whole entry): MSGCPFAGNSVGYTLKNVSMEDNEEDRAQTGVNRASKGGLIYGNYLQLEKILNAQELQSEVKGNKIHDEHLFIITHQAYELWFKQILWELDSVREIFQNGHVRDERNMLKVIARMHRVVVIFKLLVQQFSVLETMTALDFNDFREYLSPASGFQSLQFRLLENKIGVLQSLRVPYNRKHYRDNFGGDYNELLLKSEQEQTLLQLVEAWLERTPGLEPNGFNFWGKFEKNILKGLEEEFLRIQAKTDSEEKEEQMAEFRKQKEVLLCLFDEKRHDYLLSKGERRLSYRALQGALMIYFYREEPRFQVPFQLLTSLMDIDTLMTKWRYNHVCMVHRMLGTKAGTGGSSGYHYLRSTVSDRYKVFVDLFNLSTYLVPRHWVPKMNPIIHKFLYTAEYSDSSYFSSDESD

[6] = tested on: constitutively TDO‐expressing human glioblastoma A172 cell line; set-up: method as in PMID 31806638; details: cited from earlier work
[7] = tested on: hTDO‐overexpressing HEK‐293 cells; set-up: method as in PMID 22308364; details: originally reported; cited from earlier work

T1 sequence (P08183 whole entry): as the sequence (P08183 whole entry) above

Compound | P‐glycoprotein substrate status [1] | Papp A→B [2] [×10⁻⁶ cm/s] | Papp B→A [2] [×10⁻⁶ cm/s] | efflux ratio [2] | selectivity for hTDO over hIDO1, biochemical assays [3] | IC50 [4] [µM] | rotenone‐induced spatial recognition loss ([5]; highest dose (100 mg·kg^−1), P < 0.001) | IC50 (CYP2C9) [µM] | IC50 (CYP2B6) [µM] | IC50 (CYP2C19) [µM] | IC50 (CYP2D6) [µM] | IC50 (CYP3A4) [µM] | IC50 (CYP1A2) [µM] | IC50 (CYP2C8) [µM] | IC50 (GL‐261‐mTDO) [µM] | IC50 [6] [µM] | rotenone‐induced spatial recognition loss ([5]; highest dose (50 mg·kg^−1), similar trend) | potency in hTDO‐overexpressing HEK‐293 cells [7] | inhibition at 0.6 µM (GL‐261‐mTDO; read-out: inhibition GL‐261‐mTDO) [%]
C[C@@H](CO)NC(=O)c1ccc(-c2c[nH]c3cc(F)ccc23)cc1 [NTRC 3531‐0] | could be a weak substrate of P‐glycoprotein | 15.7 | 52 | 3.32 | more than 60 times | 0.49 | significantly less rotenone‐induced spatial recognition loss | > 31.6 | > 31.6 | > 31.6 | > 31.6 | > 31.6 | > 31.6 | 16.3 | 0.214 | – | – | – | –
Fc1ccc2c(/C=C/c3nnn[nH]3)c[nH]c2c1 [LM10, reference compound] | not a P‐glycoprotein substrate | 5.63 | 1.58 | – | – | – | – | – | – | – | – | – | – | – | – | 24 | not statistically significant | high‐nanomolar potent inhibitor | 42
